# Source: US20100028293A1, “Agents for control of codling moth in fruit orchards” (Efal Chemical Industries Ltd., priority 2004, published 2010)
# Tests used:
# codling moth adults = assay: Cage bioassay, paired traps with synthetic compounds versus water/ethanol control trap; format: in vivo, Cydia pomonella; conditions: for attractiveness to the adult insects (insects caught in trap): individual compounds at the concentrations detected in the leaf extracts, paired with control trap of water and ethanol, 60 adults, overnight, decreasing order: methyl salicylate and theaspirane mixture, linalool, benzyl alcohol
# Method: (i) Insects—Eggs of the CM Cydia pomonella L. were hatched at room temperature in a petri dish. The larvae were fed an artificial diet (Manduca Premix-Heliothis Premix, Stonefly Inc., Brvan, Tex.), kept at 25±0.5° C., 60±1% relative humidity and a photoperiod of 16:8 h (L:D) until the fifth instar larvae, which were transferred to corrugated paper strips (2 cm^2). Upon emergence, adult insects of mixed sex and age (within 2 days) were used for the cage bioassays.
# (v) Cage bioassays—Trapping tests were conducted in screen cages (96×68×45 cm) in the laboratory at room temperature (23° C.±3° C.) based on the method of Zhu et al. (2003). Sixty codling moth adults of mixed sex and ages (2 days after pupal emergence) were released into a cage containing the traps with different treatments. […] A Whatman paper wick (10 cm long) was used as a dispenser. To examine the effects of adding recombinant BGL1 to the leaf extract, four traps were constructed and put into the same cage. The first trap contained 10 ml of leaf extract with the addition of recombinant BGL1. The second trap contained the same amount of leaf extract with the addition of glucoimidazole. The third trap contained only leaf extract and the fourth trap contained water. The insects caught in the traps, or around the trap, were counted 12 h after their release. The insects around the trap were defined as follows: the space of the screen cage was divided equally into four parts. Each trap was put in the center of each part. The number of the insects present in each specific space, not including the ones inside the trap, was obtained in the experiments. To test the attractiveness of the synthetic compounds, traps were made with the individual chemicals that were first dissolved in ethanol at the concentrations determined by the SPME-GC-MS analyses in leaf extracts treated with BGL1. The final concentration of ethanol was 0.01%. Each trap was kept in the cage with only a control water trap including 0.01% ethanol. The experiments were conducted overnight (from 9 pm to 9 am) to cover their active time before the twilight in the early morning. […] This experiment was replicated 3 times. The traps were randomly arranged in the replications to avoid possible position effect of the traps. The studies on sex ratios of trapped insects were skipped because of complicated involvement of insect pheromones.
# [1] = system: endogenous β-glucosidase in apple leaf extracts; assay: Quantitative β-glucosidase activity assay with pNPG as substrate; format: biochemical, Malus domestica; conditions: 2 μM glucoimidazole added to leaf homogenate
# Method: (ii) Apple leaf extract treatments—Apple (cv. Anna) spurs with both leaves and fruit were excised from a commercial orchard in the suburb of Rehovot, Israel, in June 2004. The leaves were excised from the spurs, rinsed with double distilled water (DDW) and then dried with filter paper. Dried leaves were homogenized in liquid nitrogen. Three times the weight of ice-cold extraction buffer containing 10 mM EDTA and 4 mM DTT in 50 mM citrate buffer, pH 4.3, was added to the leaf homogenate (4-5 g per treatment). The mixture was then rotated for 1 h at 4° C. and centrifuged at 16,000 g for 5 min. The supernatant (10 ml per treatment) was collected. In one treatment, 1 unit of recombinant A. niger BGL1 produced in P. pastoris (Dan et al., 2000) was added and the solution was kept at 37° C. for 4 h. In another treatment, 2 μM glucoimidazole (a β-glucosidase inhibitor) was added to the leaf homogenate immediately after the addition of the extraction buffer in order to block any endogenous β-glucosidase activity. Quantitative β-glucosidase activity was assayed using p-nitrophenyl-β-D-glucopyranoside (pNPG) as the substrate according to Shoseyov et al (1990).
smiles,measurement,setting,value
"CCCCCCCCO [1-octanol, reference compound]",effect on the behavior of codling moth adults,codling moth adults; 1-octanol alone or added to other compounds,does not have a significant effect
same,insects caught in trap,codling moth adults; trap with 70 ng m^−1 1-octanol,did not catch any insects
OCc1ccccc1 [benzyl alcohol],attractiveness to the adult insects (insects caught in trap),codling moth adults,more attractive than water
CC(C)=CCC/C(C)=C/CO [geraniol],repellent effect on codling moth adults,codling moth adults; 39.4 ng ml^−1,exhibited a repellent effect
OC[C@@H]1[C@@H](O)[C@H](O)[C@@H](O)c2nccn21 [glucoimidazole],β-glucosidase activity in the leaf extract after treatment,[1],undetectable levels
C=CC(C)(O)CCC=C(C)C (stereo not shown) [linalool],attractiveness to the adult insects (insects caught in trap),codling moth adults,more attractive than water
COC(=O)c1ccccc1O [methyl salicylate],attractiveness to the adult insects (insects caught in trap),codling moth adults,more attractive than water
